From publication PMC6399351, “Cationic Intrinsically Disordered Antimicrobial Peptides (CIDAMPs) Represent a New Paradigm of Innate Defense with a Potential for Novel Anti-Infectives” (Scientific Reports, 2019) come the findings set out here.

Peptide text beside a SMILES is read from it. * marks the point of attachment. Palmitoyl = CCCCCCCCCCCCCCCC(=O)*

What all share (assay): CFU assay of antimicrobial activity
Assay type in all cases: cell-based
What all share (settings): 10 mM NaP, pH 7.3, 1% TSB

Test [1] has as its system Corynebacterium simulans DSM 44415. As for the experimental part: All purified peptides and recombinant proteins were applied using a colony forming unit (CFU) assay in different media. Bacteria were grown to early log-phase in BHI, washed either with 10 mM Na-P, pH 7.4/1% TSB or pH 5.5/1% TSB, or pH 5.5 without TSB or BHI, and adjusted to a concentration of 10^4–10^5 colony forming units (CFU)/ml. For cell number control, 100 µl aliquots were diluted 1:10, 1:100 and 1:1000 and plated in duplicates on BHI agar plates. […]
(§1) Then bacteria were incubated for 2 h at ambient temperature, if not otherwise stated. 10 µl of 0.01% (v/v) acetic acid, added to 100 µl aliquots of the bacteria in the respective medium, served as negative control. From each test, 1:10 and 1:100 dilutions were generated and plated as duplicates of 100 µl aliquots on BHI agar plates. After 16 h incubation at 37 °C, CFU were counted using a colony counter (Bio Kobe, Japan) and expressed as mean of the duplicate estimation to achieve a complete dose-response curve. All experiments were performed at serial dilutions in a concentration range of 100 µg/mL −25 ng/mL for recombinant HRNR fragments and 300 or 150 µg/mL–19 ng/mL for synthetic peptides.

The subject of test [2] is Prevotella oralis ATCC 33321. The procedure:
All purified peptides and recombinant proteins were applied using a colony forming unit (CFU) assay in different media. Bacteria were grown to early log-phase in BHI, washed either with 10 mM Na-P, pH 7.4/1% TSB or pH 5.5/1% TSB, or pH 5.5 without TSB or BHI, and adjusted to a concentration of 10^4–10^5 colony forming units (CFU)/ml. For cell number control, 100 µl aliquots were diluted 1:10, 1:100 and 1:1000 and plated in duplicates on BHI agar plates. To 100 µl aliquots of the bacteria, suspended in the respective medium (10 mM Na-P buffer pH 7,0–7,4/ 1% (w/v) TSB; 10 mM Na-P buffer pH 5,5/ 1% (w/v) TSB; 10 mM Na-P buffer pH 7,0–7,4/ 1% (w/v) TSB pH 7,0–7,4/ 0,25% (w/v) glucose; […], respectively), 10 µl of a solution of the peptide or protein (two-fold dilutions, from 300 µg/ml or 150 µg/ml down to 19 ng/ml), dissolved in 0.01% (v/v) acetic acid, were added.
as §1

The subject of test [3] is Streptococcus pneumoniae ATCC 33400. As for the experimental part: (§2) All purified peptides and recombinant proteins were applied using a colony forming unit (CFU) assay in different media. Bacteria were grown to early log-phase in BHI, washed either with 10 mM Na-P, pH 7.4/1% TSB or pH 5.5/1% TSB, or pH 5.5 without TSB or BHI, and adjusted to a concentration of 10^4–10^5 colony forming units (CFU)/ml. For cell number control, 100 µl aliquots were diluted 1:10, 1:100 and 1:1000 and plated in duplicates on BHI agar plates. To 100 µl aliquots of the bacteria, suspended in the respective medium (10 mM Na-P buffer pH 7,0–7,4/ 1% (w/v) TSB; […]; 10 mM Na-P buffer pH 7,0–7,4/ 1% (w/v) TSB pH 7,0–7,4/ 0,25% (w/v) glucose; 10 mM Na-P buffer pH 5,5/ 0,25% (w/v) glucose, respectively), 10 µl of a solution of the peptide or protein (two-fold dilutions, from 300 µg/ml or 150 µg/ml down to 19 ng/ml), dissolved in 0.01% (v/v) acetic acid, were added.
as §1

Test [4] has as its system Streptococcus pyogenes ATCC 12344. The procedure:
as §2, §1

For the compound `CCCCCCCCCCCCCCCC(=O)NCC(=O)N[C@@H](CCCNC(=N)N)C(=O)N[C@@H](CCCNC(=N)N)C(=O)NCC(=O)NCC(=O)N[C@@H](CCCNC(=N)N)C(=O)NCC(=O)NCC(=O)N[C@@H](CCCNC(=N)N)C(=O)NCC(=O)N[C@@H](CCCNC(=N)N)C(=O)NCC(=O)N[C@@H](CCCNC(=N)N)C(=O)O` [Pal-GR13] (Palmitoyl-GRRGGRGGRGRGR-OH), the LD90 in test [1] stood at 0.59 µg/mL; in test [2], 9.38 µg/mL; in test [3], 2.35 µg/mL; in test [4], 0.15 µg/mL.
